Measured values reported in PubChem BioAssay AID330 (DTP/NCI, 2004).
Where “and” joins values, the source holds several entries; their conditions need not be identical. Equal entries are not always repeated. Inconclusive results and toxic doses are left out. The calls were made as follows: active = survival T/C of 150% or more; inactive = T/C below 125% in these data.

System: P388 leukemia ip, CD2F1 mice, survival T/C
Assay: NCI In Vivo Anticancer Drug Screen. Data for tumor model P388 Leukemia (intraperitoneal) in CD2F1 (CDF1) mice
Conditions: endpoint: median survival time, higher = longer survival
In short: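 Mice carrying the transplanted tumor received test compound or vehicle. Survival was recorded in each group, and the value is the treated-group measurement divided by that of the vehicle-treated control group.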

[1] = dose: 50.0 mg/kg/injection, schedule: Q01DX005 (ip), vehicle: Klucel (hydroxypropylcellulose) (HPC)
[2] = dose: 100.0 mg/kg/injection, schedule: Q01DX005 (ip), vehicle: Klucel (hydroxypropylcellulose) (HPC)
[3] = dose: 200.0 mg/kg/injection, schedule: Q01DX005 (ip), vehicle: Klucel (hydroxypropylcellulose) (HPC)
[4] = dose: 100.0 mg/kg/injection, schedule: Q01DX009 (ip), vehicle: saline with Tween-80
[5] = dose: 200.0 mg/kg/injection, schedule: Q01DX009 (ip), vehicle: saline with Tween-80
[6] = dose: 60.0 mg/kg/injection, schedule: Q01DX005 (ip), vehicle: Klucel (hydroxypropylcellulose) (HPC)
[7] = dose: 50.0 mg/kg/injection, schedule: Q01DX005 (ip), vehicle: saline with Tween-80
[8] = dose: 100.0 mg/kg/injection, schedule: Q01DX005 (ip), vehicle: saline with Tween-80
[9] = dose: 200.0 mg/kg/injection, schedule: Q01DX005 (ip), vehicle: saline with Tween-80
[10] = dose: 50.0 mg/kg/injection, schedule: Q01DX009 (ip), vehicle: Klucel (hydroxypropylcellulose) (HPC)
[11] = dose: 100.0 mg/kg/injection, schedule: Q01DX009 (ip), vehicle: Klucel (hydroxypropylcellulose) (HPC)
[12] = dose: 200.0 mg/kg/injection, schedule: Q01DX009 (ip), vehicle: Klucel (hydroxypropylcellulose) (HPC)
[13] = dose: 60.0 mg/kg/injection, schedule: Q01DX005 (ip), vehicle: saline with Tween-80
[14] = dose: 120.0 mg/kg/injection, schedule: Q01DX005 (ip), vehicle: saline with Tween-80
[15] = dose: 240.0 mg/kg/injection, schedule: Q01DX005 (ip), vehicle: saline with Tween-80

Measured: T/C

Cn1c(C(=O)N/N=C/C23OC(C)(C)OC2OCC2OC(C)(C)OC23)cc2cc(OCc3ccccc3)ccc21 (stereo not given)
inactive: [1] 92 % of control | [2] 101 % of control | [3] 90 % of control

C1CC[N-]CC1.C1CC[N-]CC1.C1CC[N-]CC1.[Cr+6].[N-]=C=O.[N-]=C=O.[N-]=C=O
inactive: dose: 100.0 mg/kg/injection, schedule: Q04DX002 (ip), vehicle: distilled water + alcohol 99 % of control | dose: 200.0 mg/kg/injection, schedule: Q04DX002 (ip), vehicle: distilled water + alcohol 96 % of control | dose: 400.0 mg/kg/injection, schedule: Q04DX002 (ip), vehicle: distilled water + alcohol 89 % of control

BrCC1(CBr)COC1
inactive: dose: 50.0 mg/kg/injection, schedule: Q01DX001 (ip), vehicle: Klucel (hydroxypropylcellulose) (HPC) 95 % of control | dose: 100.0 mg/kg/injection, schedule: Q01DX001 (ip), vehicle: Klucel (hydroxypropylcellulose) (HPC) 107 % of control | dose: 200.0 mg/kg/injection, schedule: Q01DX001 (ip), vehicle: Klucel (hydroxypropylcellulose) (HPC) 100 % of control

COn1nnc2ccc([N+](=O)[O-])cc21
inactive: dose: 50.0 mg/kg/injection, schedule: Q01DX001 (ip), vehicle: saline with Tween-80 99 % of control | dose: 100.0 mg/kg/injection, schedule: Q01DX001 (ip), vehicle: saline with Tween-80 101 % of control | dose: 200.0 mg/kg/injection, schedule: Q01DX001 (ip), vehicle: saline with Tween-80 92 % of control

CCCCCCCC#CC(=O)O
inactive: dose: 50.0 mg/kg/injection, schedule: Q01DX009 (ip), vehicle: saline with Tween-80 88 % of control | [4] 89 % of control | [5] 86 % of control

CCOC1[N-]CC(C)C(OCC)N1.CCOC1[N-]CC(C)C(OCC)N1.[Cl][Pd][Cl] (stereo not given)
inactive: [6] 102 % of control | dose: 120.0 mg/kg/injection, schedule: Q01DX005 (ip), vehicle: Klucel (hydroxypropylcellulose) (HPC) 106 % of control | dose: 240.0 mg/kg/injection, schedule: Q01DX005 (ip), vehicle: Klucel (hydroxypropylcellulose) (HPC) 107 % of control

COc1cc(OC)c(NC(=O)C2=C(C)NC(C)=C(C(=O)Nc3cc(Cl)c(OC)cc3OC)C2c2cccc([N+](=O)[O-])c2)cc1Cl
inactive: dose: 15.0 mg/kg/injection, schedule: Q01DX005 (ip), vehicle: Klucel (hydroxypropylcellulose) (HPC) 101 % of control | dose: 30.0 mg/kg/injection, schedule: Q01DX005 (ip), vehicle: Klucel (hydroxypropylcellulose) (HPC) 100 % of control | [6] 101 % of control and 93 % of control

O=c1oc(-c2cccc([N+](=O)[O-])c2)ns1
inactive: dose: 6.25 mg/kg/injection, schedule: Q01DX009 (ip), vehicle: Klucel (hydroxypropylcellulose) (HPC) 101 % of control | dose: 12.5 mg/kg/injection, schedule: Q01DX009 (ip), vehicle: Klucel (hydroxypropylcellulose) (HPC) 97 % of control | dose: 25.0 mg/kg/injection, schedule: Q01DX009 (ip), vehicle: Klucel (hydroxypropylcellulose) (HPC) 109 % of control

CCOC(=O)c1sc(=S)n(C(C)C)c1C
inactive: dose: 12.5 mg/kg/injection, schedule: Q01DX005 (ip), vehicle: saline with Tween-80 101 % of control | dose: 25.0 mg/kg/injection, schedule: Q01DX005 (ip), vehicle: saline with Tween-80 101 % of control | [7] 101 % of control and 102 % of control | [8] 100 % of control | [9] 98 % of control

CC(C)CC(NP(=S)(c1ccccc1)c1ccccc1)C(=O)O (stereo not given)
inactive: [10] 111 % of control | [11] 105 % of control | [12] 108 % of control

CC(NC(=O)C(NC(=O)OCc1ccccc1)C(C)O)C(=O)OCc1ccccc1 (stereo not given)
inactive: [7] 101 % of control | [8] 92 % of control | [9] 100 % of control

COC(=O)c1c(C)ccc2c(O)c3c(cc12)C(=O)c1c2c(cc(O)c1C3=O)C1(C)OC(C)(O2)C(O)C(N(C)C)C1O (stereo not given)
inactive: dose: 25.0 mg/kg/injection, schedule: Q01DX010 (ip), vehicle: saline 100 % of control | dose: 50.0 mg/kg/injection, schedule: Q01DX010 (ip), vehicle: saline 100 % of control | dose: 100.0 mg/kg/injection, schedule: Q01DX010 (ip), vehicle: saline 100 % of control | dose: 200.0 mg/kg/injection, schedule: Q01DX010 (ip), vehicle: saline 100 % of control | dose: 400.0 mg/kg/injection, schedule: Q01DX010 (ip), vehicle: saline 100 % of control

Cn1c(=O)c2c(c3ccccc31)Oc1oc3ccc4ccccc4c3c(=O)c1C2
inactive: dose: 12.5 mg/kg/injection, schedule: Q01DX009 (ip), vehicle: saline with Tween-80 92 % of control | dose: 25.0 mg/kg/injection, schedule: Q01DX009 (ip), vehicle: saline with Tween-80 90 % of control

Cc1ccc2c(c1)C(=O)C(CN1CCCCC1)CO2 (stereo not given)
inactive: dose: 100.0 mg/kg/injection, schedule: Q04DX003 (ip), vehicle: saline 108 % of control | dose: 200.0 mg/kg/injection, schedule: Q04DX003 (ip), vehicle: saline 108 % of control

C(#CC12CC3CC(CC(C3)C1)C2)C12CC3CC(CC(C3)C1)C2
inactive: [1] 98 % of control | [2] 92 % of control | [3] 91 % of control

CC1=CC(=O)CCC12CCOC2=O (stereo not given)
inactive: [13] 104 % of control | [14] 101 % of control | [15] 101 % of control

CCOC(=O)C1=C(SC)SC(C(=O)OCC)C2C=C(C)C=CN12 (stereo not given)
inactive: dose: 15.0 mg/kg/injection, schedule: Q01DX005 (ip), vehicle: Klucel + Tween-80 97 % of control | dose: 30.0 mg/kg/injection, schedule: Q01DX005 (ip), vehicle: Klucel + Tween-80 108 % of control | dose: 60.0 mg/kg/injection, schedule: Q01DX005 (ip), vehicle: Klucel + Tween-80 104 % of control and 96 % of control

O=C1c2ccccc2C(=O)c2cc3c(cc21)C1OC3C2=C1CC1C(=O)OC(=O)C1C2 (stereo not given)
inactive: [7] 111 % of control | [8] 93 % of control | [9] 94 % of control

Cc1ccnc(NS(=O)(=O)c2ccc(N=CC3C(=O)N(c4ccccc4)N(c4ccccc4)C3=O)cc2)n1
inactive: [10] 96 % of control | [12] 101 % of control

Cc1ccc(C2(c3ccccc3)OC(=O)c3ccccc32)cc1 (stereo not given)
inactive: dose: 200.0 mg/kg/injection, schedule: Q01DX009 (ip), vehicle: saline sonified 95 % of control

CN(C)c1ccc(C2N(C)CCN2C)cc1
inactive: [13] 93 % of control | [14] 99 % of control | [15] 103 % of control

O=C1CCCCC(=O)Nc2ccc3nc4ccccc4c(c3c2)SCCCCCCCCSc2c3ccccc3nc3ccc(cc23)N1
inactive: [13] 101 % of control | [14] 110 % of control | [15] 91 % of control

CN(C)C1C(=O)C(C(=O)NCN2CCCC2)=C(O)C2(O)C(=O)C3=C(O)c4c(O)cccc4C(C)(O)C3CC12 (stereo not given)
inactive: [7] 96 % of control | [8] 95 % of control | [9] 97 % of control

COc1ccc(/C=N/NC(N)=S)cc1
inactive: [4] 109 % of control | dose: 100.0 mg/kg/injection, schedule: Q04DX003 (ip), vehicle: saline with Tween-80 100 % of control | [5] 100 % of control | dose: 200.0 mg/kg/injection, schedule: Q04DX003 (ip), vehicle: saline with Tween-80 113 % of control | dose: 400.0 mg/kg/injection, schedule: Q01DX009 (ip), vehicle: saline with Tween-80 109 % of control | dose: 400.0 mg/kg/injection, schedule: Q04DX003 (ip), vehicle: saline with Tween-80 109 % of control

Cc1cc(OCCS(=O)(=O)C(CCOS(C)(=O)=O)COS(C)(=O)=O)cc(C)c1Cl (stereo not given)
inactive: [10] 105 % of control | [11] 102 % of control | [12] 101 % of control

Cc1cc(C)c(C#N)c(SSC(Cl)(Cl)Cl)n1
inactive: [7] 96 % of control | [8] 93 % of control | [9] 91 % of control
